Values of other authors in US20040033532A1, “Use of three-dimensional crystal structure coordinates to design and synthesize domain-selective inhibitors for angiotensin-converting enzyme (ACE)” (priority 2002, published 2004).
“Also recorded” adds a separate entry of the source. Read-outs that look alike come from different tables or passages of the source.

Legend:
[1] = biological target: T1, rabbit liver ACE (Oryctolagus cuniculus, UniProt P12822)
T1 construct: rabbit liver ACE in vitro; from tissue; host or cells: rabbit liver
T1 sequence (P12822 34-1310): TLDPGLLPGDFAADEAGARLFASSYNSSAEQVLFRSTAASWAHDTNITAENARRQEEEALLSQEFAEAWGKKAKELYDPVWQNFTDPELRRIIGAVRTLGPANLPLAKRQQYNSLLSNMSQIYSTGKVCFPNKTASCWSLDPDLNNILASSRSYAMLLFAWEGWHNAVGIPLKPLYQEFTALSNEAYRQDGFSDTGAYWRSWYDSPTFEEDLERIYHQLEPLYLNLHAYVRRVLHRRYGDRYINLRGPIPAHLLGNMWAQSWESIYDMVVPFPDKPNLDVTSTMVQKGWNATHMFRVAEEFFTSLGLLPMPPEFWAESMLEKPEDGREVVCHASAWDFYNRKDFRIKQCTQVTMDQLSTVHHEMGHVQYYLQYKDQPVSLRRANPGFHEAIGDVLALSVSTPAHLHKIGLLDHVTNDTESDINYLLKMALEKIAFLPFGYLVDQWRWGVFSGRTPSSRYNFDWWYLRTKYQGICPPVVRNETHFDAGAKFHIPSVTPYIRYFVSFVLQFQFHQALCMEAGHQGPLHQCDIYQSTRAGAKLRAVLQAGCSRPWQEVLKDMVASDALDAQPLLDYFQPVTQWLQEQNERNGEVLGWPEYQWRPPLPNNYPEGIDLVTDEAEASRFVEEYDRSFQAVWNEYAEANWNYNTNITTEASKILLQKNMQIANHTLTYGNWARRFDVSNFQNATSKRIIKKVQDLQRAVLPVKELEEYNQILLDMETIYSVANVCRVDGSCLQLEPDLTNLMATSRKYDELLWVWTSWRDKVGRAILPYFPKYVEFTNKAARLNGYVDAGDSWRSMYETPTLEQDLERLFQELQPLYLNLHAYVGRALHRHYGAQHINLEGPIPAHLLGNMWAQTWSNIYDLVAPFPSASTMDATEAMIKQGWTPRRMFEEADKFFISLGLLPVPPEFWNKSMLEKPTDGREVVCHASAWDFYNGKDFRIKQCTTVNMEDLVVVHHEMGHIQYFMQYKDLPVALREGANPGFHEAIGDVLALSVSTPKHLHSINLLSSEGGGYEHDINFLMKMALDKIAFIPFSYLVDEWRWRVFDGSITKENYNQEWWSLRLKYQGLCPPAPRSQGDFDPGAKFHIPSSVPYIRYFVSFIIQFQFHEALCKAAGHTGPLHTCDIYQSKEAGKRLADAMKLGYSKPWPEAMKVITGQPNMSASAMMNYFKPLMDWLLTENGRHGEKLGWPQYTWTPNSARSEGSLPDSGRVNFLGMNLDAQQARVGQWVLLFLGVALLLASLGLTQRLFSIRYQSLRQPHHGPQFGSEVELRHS

[2] = biological target: ACE (Homo sapiens, UniProt P12821)
Sequence of ACE (P12821 30-1306, species assumed): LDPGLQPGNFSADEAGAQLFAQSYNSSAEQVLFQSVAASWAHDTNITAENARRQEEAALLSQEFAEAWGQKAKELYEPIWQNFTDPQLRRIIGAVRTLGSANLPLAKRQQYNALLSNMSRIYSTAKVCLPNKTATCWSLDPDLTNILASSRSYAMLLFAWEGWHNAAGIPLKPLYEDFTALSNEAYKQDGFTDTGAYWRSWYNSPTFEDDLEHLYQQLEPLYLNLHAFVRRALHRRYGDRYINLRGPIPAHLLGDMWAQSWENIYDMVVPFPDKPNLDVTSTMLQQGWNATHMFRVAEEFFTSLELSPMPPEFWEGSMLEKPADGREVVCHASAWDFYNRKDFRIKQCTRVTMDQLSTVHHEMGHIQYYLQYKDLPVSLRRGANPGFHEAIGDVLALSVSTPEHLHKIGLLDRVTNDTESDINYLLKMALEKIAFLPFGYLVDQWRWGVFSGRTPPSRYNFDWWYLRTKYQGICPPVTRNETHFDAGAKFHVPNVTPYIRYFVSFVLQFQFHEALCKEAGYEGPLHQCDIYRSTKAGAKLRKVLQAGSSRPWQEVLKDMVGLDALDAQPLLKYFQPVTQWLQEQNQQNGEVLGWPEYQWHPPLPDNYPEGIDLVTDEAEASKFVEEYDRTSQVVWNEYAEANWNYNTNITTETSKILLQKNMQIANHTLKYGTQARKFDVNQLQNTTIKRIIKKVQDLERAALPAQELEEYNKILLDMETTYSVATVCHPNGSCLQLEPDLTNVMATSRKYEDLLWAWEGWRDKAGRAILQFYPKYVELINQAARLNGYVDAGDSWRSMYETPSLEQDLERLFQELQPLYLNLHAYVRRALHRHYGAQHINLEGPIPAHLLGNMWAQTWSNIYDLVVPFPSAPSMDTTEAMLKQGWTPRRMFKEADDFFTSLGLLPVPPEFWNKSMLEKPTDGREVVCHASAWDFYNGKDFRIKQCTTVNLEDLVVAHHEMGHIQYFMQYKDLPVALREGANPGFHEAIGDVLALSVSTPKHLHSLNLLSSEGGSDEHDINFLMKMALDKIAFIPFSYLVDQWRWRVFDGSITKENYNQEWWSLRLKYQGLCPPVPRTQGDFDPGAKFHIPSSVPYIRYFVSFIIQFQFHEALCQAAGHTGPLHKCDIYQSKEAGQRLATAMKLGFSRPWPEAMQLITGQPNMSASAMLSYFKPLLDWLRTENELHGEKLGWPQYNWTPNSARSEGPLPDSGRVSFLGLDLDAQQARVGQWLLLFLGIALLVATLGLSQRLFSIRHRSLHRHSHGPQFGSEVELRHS

[3] = test system: ACE N domain and C domain active sites; conditions: N domain vs C domain

In the case of C[C@H](NC(=O)/C=C/c1ccccc1)C(=O)N1CCC[C@H]1C(=O)O [Compound 1], the IC50 ([1]; Hip-His-Leu hydrolysis, rabbit liver ACE, in vitro) is listed as 230000 nM, the enzyme activity remaining ([1]; after 10 minutes of incubation with 0.4 mM of inhibitor) is listed as about 50% and the “recovery of enzyme activity after dialysis” value ([1]; after dialysis) is listed as “could not be recovered”.
In the case of CN(CC(=O)NO)C(=O)[C@@H]1CCCC[C@@H]1C(=O)O [Compound 2], the IC50 ([2]; Hip-Gly-Gly as substrate) is given as 7 nM and the Ki ([2]; competitive inhibitor of ACE) is given as 2.7 ± 0.2 nM.
For O=C(N[C@@H](Cc1ccccc1)C(=O)CCC(=O)N1CCC[C@H]1C(=O)O)c1ccccc1 [keto-ACE, Bz-Phe Ψ (CO—CH2)Gly-Pro], the “domain selectivity of ACE inhibition (in words)” value [3] is given as “more effective inhibitors of the C domain; also recorded: C-domain specific inhibitor”.
In the case of Ac-Asp-Phe-Ψ(PO2—CH2)-Ala-Ala-NH2, the “domain selectivity of ACE inhibition (in words)” value [3] is given as “far better inhibitor of the N domain” and the “domain selectivity of ACE inhibition (in words)” value ([3]; listed as Ac-Asp-Phe-Ψ(PO2—CH2)-Ala-Ala) is given as “far better inhibitor of the N-domain”.
In the case of “Angiotensin (1-7) [Asp^1-Pro^7] (DRVYIHP; Angiotensin 1-7; UniProt P01019 25-31, looked up, fragment) [peptide Asp1-Pro7 of angiotensin]”, the “domain selectivity of ACE inhibition (in words)” value [3] is listed as “more effective inhibitors of the C domain”.
